Laboratory results taken from patent publication US20240327415A1, “Multicomponent Complexes, Including Salts, Crystalline Forms, and Hydrates and Solvates of ENT1 Inhibitors” (iTeos Belgium SA, priority 2023, published 2024).
Counter-ions that a name gives are not always drawn.

Key:
Format in all cases: physicochemical
[1] = Dynamic Vapor Sorption (DVS)
Method: (§1) METHOD A: In Example 11, approximately 5-15 mg of sample was placed into a mesh vapor sorption balance pan and loaded into either a DVS Intrinsic or DVS Advantage dynamic vapor sorption balance by Surface Measurement Systems. The sample was subjected to a ramping profile from 40-90% relative humidity (RH) at 10% increments, maintaining the sample at each step until a stable weight had been achieved (dm/dt 0.004%, minimum step length 30 minutes, maximum step length 500 minutes) at 25° C. After completion of the sorption cycle, the sample was dried using the same procedure to 0% RH and then a second sorption cycle back to 40% RH was carried out. Two cycles were performed. The weight change during the sorption/desorption cycles were plotted, allowing the hygroscopic nature of the sample to be determined. XRPD analysis was then carried out on the residual solid.
as §1, with “B:” for “A:”, “Examples 2A, 3, 14, and 17,” for “Example 11,”, “10-20” for “5-15”, “determined.” for “determined. XRPD analysis was then carried out on the residual solid.”
as §1, with “Approximately 10-20” for “METHOD A: In Example 11, approximately 5-15”, “RH” for “relative humidity (RH)”, “min,” for “minutes,”, “min)” for “minutes)”, “determined.” for “determined. XRPD analysis was then carried out on the residual solid.”

[2] = Variable Humidity X-Ray Powder Diffraction (VH-XRPD); parameters: key to VH-XRPD XRPD Results: A = amorphous; 1 = Form 1 Compound 1 hydrogen chloride; PC = poorly crystalline
Method: (§2) In the examples below, VH-XRPD analysis was carried out on a Philips X'Pert Pro Multipurpose diffractometer equipped with a humidity chamber. The samples were scanned between 4 and 36° 2θ using Cu K radiation (α1λ=1.54060 Å; α2=1.54443 Å; β=1.39225 Å; α1: α2 ratio=0.5; most, if not all, B radiation is removed from the beam using an X-ray mirror) running in Bragg-Brentano geometry (step size 0.008° 2θ) using 40 kV/40 mA generator settings. Measurements were carried out from 2-90% RH, with a final measurement taken at 40% RH.
as §2, with “VH-XRPD” for “In the examples below, VH-XRPD”, “radiation (α1 λ=1.54060” for “radiation (α1λ=1.54060”, “Å; α1:α2” for “Å; α1: α2”, “all, β” for “all, B”, “from 6-90% relative humidity (RH),” for “from 2-90% RH,”

[3] = TG/DSC and DSC thermal analysis; conditions: listed as Crystalline Form 8 Compound 1 mono(hydrogen sulfate)
Method: (§3) In the examples below, to measure TGA/DSC, 2-10 mg of material was added into a pre-tared open aluminum pan and loaded into a TA Instruments Discovery SDT 650 Auto—Simultaneous DSC and held at room temperature. The sample was then heated at a rate of 10° C./min from 30° C. to 400° C. during which time the change in sample weight was recorded along with the heat flow response (DSC). Nitrogen was used as the sample purge gas, at a flow rate of 200 cm^3/min.
(§4) METHOD A: In Example 3, 1-5 mg of material was weighed into an aluminum DSC pan and sealed non-hermetically with a pierced aluminum lid. The sample pan was then loaded into a TA DSC2500 and held at 20° C. Once a stable heat-flow response was obtained, the sample and reference were heated to an upper temperature of 200° C. at a scan rate of 10° C./min and the resulting heat flow response monitored. The sample was held at the upper temperature for 3 minutes, before it was cooled at 10° C./min to 20° C., reheated to the upper temperature at 10° C./min, and then cooled again to 20° C. at the same rate. Nitrogen was used as the purge gas, at a flow rate of 50 cm^3/min.
as §4, with “B:” for “A:”, “Examples 2A, 14, and 17,” for “Example 3,”, “−80° C. and then” for “20° C.,”, “C./min.” for “C./min, and then cooled again to 20° C. at the same rate.”
METHOD C: In Example 5, 1-5 mg of a sample were weighed into an aluminum DSC pan and sealed non-hermetically with an aluminum lid. The sample pan was then loaded into a TA Instruments Discovery DSC 2500 differential scanning calorimeter equipped with a RC90 cooler. The sample and reference were heated to 190° C. at a scan rate of 10° C./min and the resulting heat flow response monitored. The sample was re-cooled to −80° C. and then reheated again to 190° C. all at 10° C./min. Nitrogen was used as the purge gas, at a flow rate of 50 cm^3/min.
as §3, with “2-10” for “In the examples below, to measure TGA/DSC, 2-10”, “Auto-Simultaneous” for “Auto—Simultaneous”
as §4, with “1-5” for “METHOD A: In Example 3, 1-5”, “min,” for “minutes,”

[4] = salt screen, XRPD of damp, dried and 40° C./75% RH stored samples (Salt Preparation Methods 1 and 2); parameters: key: A: amorphous; Crystalline Form 10 mono(hydrogen sulfate); conditions: Sulfuric Acid, 1 equiv.
Method: Salt Preparation Method 1: Approximately 25 mg of Compound 1 (free base) was weighed out into 1.5 mL screw-cap vials and a stirrer bar was added. For solid counterions, the appropriate amount of acid (1.0 or 2.0 equiv.) was weighed into separate 1.5 mL screw-cap vials. 100 μL of the appropriate solvent system was added to both the Compound 1 and the solid counterions. Stock solutions of liquid counterions were prepared, such that 100 μL contained 1.0 or 2.0 equiv. of acid. See counterion and solvent lists in Table 60 and Table 61 respectively.
The samples were stirred at 40° C. for 5-10 min and then the acid solutions were added to Compound 1, rinsing out the transfer vial with a further 50 μL of solvent. […] Experiments were temperature cycled between 40° C. and 5° C. (1 h hold; 0.1° C./min ramp/cool) for ca. 24-68 h. Anti-solvent addition (ASA) was carried out to slurries at 5° C. then experiments were heated to 30° C. over 1 h. ASA was carried out at 30° C. or 40° C. where clear solutions or gums were observed.
Temperature cycling was then continued for ca. 16-69 h, followed by further ASA and temperature cycling if required. Material was isolated at 5° C. and analyzed damp by XRPD. All isolated material was dried under vacuum at ca. 40° C. for ca. 17-91 h then re-analyzed by XRPD. The XRPD plate was stored at 40° C./75% RH for 24-48 h and then samples re-analyzed. Solutions were stored uncapped at ambient temperature to evaporate. Any residual solids were analyzed by XRPD.
Salt Preparation Method 2: The general procedure adopted in preparing the potential salts is outlined below. A known mass of Compound 1 (free base) and a known volume of the appropriate solvent system were added to 20 mL scintillation vials. The required mol. equiv. of the appropriate counterions were added to the vials as solutions or slurries in the corresponding solvent system.
The experiments were stirred at 40° C. for ca. 1 h, and then temperature cycled between 40° C. and 5° C. with 0.1° C./min ramp and 1 h hold between each step. Anti-solvent additions and subsequent slurrying at 5° C. were employed in order to facilitate crystallization. […] The damp and dried solids were subsampled and analyzed by XRPD. Where applicable, the dried solids were stored at 40° C./75% RH for 24-48 h in order to improve the crystallinity and/or facilitate solid form conversion to the desired form.

COc1cc(C(=O)O[C@@H]2CCCOc3cc(cc(OC)c3OC)C(=O)NCCCN3CCCN(CC2)CC3)cc(OC)c1OC.Cl.Cl
hygroscopicity ([1]; 25° C.): moderate-high hygroscopicity | hysteresis between the sorption and desorption cycles (DVS) ([1]; 25° C. (fumarate: at 20% RH)): ca. 1.3% | post-DVS sample (XRPD / appearance) ([1]; DVS at 25° C.): gum-like material | moisture uptake (DVS) ([1]; between 0-80% RH, second sorption cycle, 25° C.): 18% | moisture uptake (DVS) ([1]; between 40-80% RH, first sorption cycle, 25° C.): ca. 5% | moisture uptake (DVS) ([1]; between 80-90% RH, 25° C.): 9% | relative humidity range in which the form is retained (VH-XRPD) [2]: 7-80 % RH | VH-XRPD XRPD Results ([2]; Desorption (1st), 7% RH, hold 60 min): 1 | VH-XRPD XRPD Results ([2]; Desorption (1st), 10% RH, hold 60 min): 1 | VH-XRPD XRPD Results ([2]; Desorption (1st), 20% RH, hold 960 min): 1 | VH-XRPD XRPD Results ([2]; Desorption (1st), 40% RH, hold 60 min): 1 | VH-XRPD XRPD Results ([2]; Desorption (2nd), 40% RH, hold 60 min): 1 | VH-XRPD XRPD Results ([2]; Desorption (2nd), 60% RH, hold 60 min): 1 | VH-XRPD XRPD Results ([2]; Sorption, 10% RH, hold 60 min): 1 | VH-XRPD XRPD Results ([2]; Sorption, 20% RH, hold 60 min): 1 | VH-XRPD XRPD Results ([2]; Sorption, 40% RH, hold 60 min): 1 | VH-XRPD XRPD Results ([2]; Sorption, 60% RH, hold 60 min): 1 | VH-XRPD XRPD Results ([2]; Sorption, 70% RH, hold 60 min): 1 | VH-XRPD XRPD Results ([2]; Sorption, 80% RH, hold 60 min): 1

COc1cc(C(=O)O[C@@H]2CCCOc3cc(cc(OC)c3OC)C(=O)NCCCN3CCCN(CC2)CC3)cc(OC)c1OC.O=S(=O)(O)O
TGA/DSC mass loss [3]: 7.2% mass loss | TGA/DSC thermal event, onset ([3]; value before the brackets): 144 °C | TGA/DSC thermal event, peak ([3]; value in brackets): 158 °C

COc1cc(C(=O)O[C@@H]2CCCOc3cc(cc(OC)c3OC)C(=O)NCCCN3CCCN(CC2)CC3)cc(OC)c1OC [Compound 1 mono(hydrogen sulfate)]
XRPD Analysis 40° C. 75% RH ([4]; Acetonitrile, AS tBME): A | XRPD Analysis Damp ([4]; Acetonitrile, AS tBME): A | XRPD Analysis Dry ([4]; Acetonitrile, AS tBME): A | XRPD Analysis 40° C. 75% RH ([4]; Ethanol, AS Heptane): A | XRPD Analysis Damp ([4]; Ethanol, AS Heptane): A | XRPD Analysis Dry ([4]; Ethanol, AS Heptane): A | XRPD Analysis 40° C. 75% RH ([4]; Ethyl acetate, AS Heptane): A | XRPD Analysis Damp ([4]; Ethyl acetate, AS Heptane): A | XRPD Analysis Dry ([4]; Ethyl acetate, AS Heptane): A | XRPD Analysis 40° C. 75% RH ([4]; IPA:H2O (75:25% v/v), AS tBME): 10 | XRPD Analysis Damp ([4]; IPA:H2O (75:25% v/v), AS tBME): A | XRPD Analysis Dry ([4]; IPA:H2O (75:25% v/v), AS tBME): A | XRPD Analysis 40° C. 75% RH ([4]; MEK, AS Heptane): 10 | XRPD Analysis Damp ([4]; MEK, AS Heptane): A | XRPD Analysis Dry ([4]; MEK, AS Heptane): A | XRPD Analysis 40° C. 75% RH ([4]; THF, AS Heptane): A | XRPD Analysis Damp ([4]; THF, AS Heptane): A | XRPD Analysis Dry ([4]; THF, AS Heptane): A
